Literature values in patent US20240050502A1, “AMANITA MUSCARIA COMPOUNDS” (priority 2020, published 2024).

What was measured:
mice = settings: for LD50: intravenous administration in mice
[1] = in vivo
[2] = system: inflammatory pain induced by formalin; settings: mice
monkey = settings: quantity many times that which would cause poisoning by ingestion of Amanita muscaria in the human

Compound: N[C@H](C(=O)O)c1cc(=O)[nH]o1 [ibotenic acid]
- LD50 (mice): 15 mg/kg
- oral LD50 (mice; oral, mice): 38 mg/kg
- minimum dose needed to obtain psychedelic effects [1]: 30 to 60 mg

Compound: NCc1cc(=O)[nH]o1 [muscimol]
- LD50 (mice): 5.62 mg/kg
- dose at which central nervous system intoxication occurs [1]: 6.0 mg

Compound: fucomannogalactan
- inflammatory pain induced by formalin [2]: significantly reduced

Compound: C[C@@H]1O[C@H](C[N+](C)(C)C)C[C@H]1O [muscarine]
- activity by mouth (monkey): inactive

Compound: β(1→6)-branched (1→3)-β-d-glucan
- antitumor activity against sarcoma 180 tumors (sarcoma 180 tumors; mice): significant antitumor activity
- antitumor effect when mixed with mitomycin C (sarcoma 180 tumors; mixed with the chemotherapy drug mitomycin C): greater than that of mitomycin C alone
